Assay results reported in ChEMBL document CHEMBL1144517, “Structural requirement of chalcones for the inhibitory activity of interleukin-5” (Bioorg Med Chem, 2007).

How the values were obtained:
[1] = Inhibition of IL5 in mouse Y16 cells; assay type: functional; set-up: concentration or dose not given beside the values
[2] = Inhibition of IL5 in mouse Y16 cells […]; assay type: functional, cell-based

| Compound | Inhibition [1] [%] | IC50 [2] [µM] |
| --- | --- | --- |
| O=C(/C=C/c1ccc(O)cc1)c1ccccc1O | 50 | 48.2 |
| CCc1ccc(/C=C/C(=O)c2c(O)cccc2OCC2CCCCC2)cc1 | 82.3 | 27.9 |
| O=C(/C=C/c1ccc(CO)cc1)c1c(O)cccc1OCC1CCCCC1 | 99.3 | 6.4 |
| O=Cc1ccc(/C=C/C(=O)c2c(O)cccc2OCC2CCCCC2)cc1 | 99.8 | 4.5 |
| O=C(O)c1cccc(/C=C/C(=O)c2c(O)cccc2OCC2CCCCC2)c1 | 98.1 | 14.1 |
| O=C(O)c1ccccc1/C=C/C(=O)c1c(O)cccc1OCC1CCCCC1 | -18.9 | > 50 |
| COCOc1ccc(/C=C/C(=O)c2c(O)cccc2OCc2ccccc2)cc1 | 47.8 | > 50 |
| O=C(/C=C/c1ccc(O)cc1)c1ccc(OCC2CCCCC2)cc1O | 59.7 | 21.4 |
| O=C(O)c1ccc(/C=C/C(=O)c2c(O)cccc2OCC2CCCCC2)cc1 | 100 | 9.4 |
| Nc1ccc(/C=C/C(=O)c2c(O)cccc2OCC2CCCCC2)cc1 | 16.4 | > 50 |
| O=C(O)c1ccc(/C=C/C(=O)c2ccccc2O)cc1 | -18.7 | > 50 |
| O=C(/C=C/c1ccccc1)c1c(O)cccc1OCC1CCCCC1 | 99.6 | 14.3 |
| COC(=O)c1ccc(/C=C/C(=O)c2c(O)cccc2OCC2CCCCC2)cc1 | 98.6 | 3.9 |
| NS(=O)(=O)c1ccc(/C=C/C(=O)c2c(O)cccc2OCc2ccccc2)cc1 | 99.5 | 7 |
| O=C(/C=C/c1ccc(O)cc1)c1c(O)cccc1OCC1CCCCC1 | 99 | 12.6 |
| O=C(O)c1ccc(CCC(=O)c2c(O)cccc2OCC2CCCCC2)cc1 | 15.6 | > 50 |
| O=C(/C=C/c1ccc(O)cc1)c1c(O)cccc1OCc1ccccc1 | 78.8 | 25.3 |
| O=C(O)c1ccc(/C=C/C(=O)c2ccc(OCC3CCCCC3)cc2O)cc1 | 100 | 10.8 |
| NS(=O)(=O)c1ccc(/C=C/C(=O)c2c(O)cccc2OCC2CCCCC2)cc1 | 99.5 | 1.8 |
| CC(=O)Nc1ccc(/C=C/C(=O)c2c(O)cccc2OCC2CCCCC2)cc1 | 99.2 | 6.4 |
| O=C(/C=C/c1ccc(Cl)cc1)c1c(O)cccc1OCC1CCCCC1 | 98.8 | 7.1 |
| O=C(/C=C/c1ccc(O)cc1)c1ccc(OCc2ccccc2)cc1O | 77.6 | 28.8 |
| O=C(O)c1ccc(/C=C/C(=O)c2ccc(OCc3ccccc3)cc2O)cc1 | 100 | 14.2 |
| O=C(O)c1ccc(/C=C/C(=O)c2c(O)cccc2OCc2ccccc2)cc1 | 100 | 10.2 |
| O=C(O)c1ccc(/C=C/C(=O)c2ccccc2OCc2ccccc2)cc1 | 15 | > 50 |
| COCOc1ccc(/C=C/C(=O)c2c(O)cccc2OCC2CCCCC2)cc1 | 13 | > 50 |
